Laboratory results reported in PubChem BioAssay AID248 (DTP/NCI, 2004).
Where “and” joins values, the source holds several entries; their conditions need not be identical. Identical values can stand only once. Inconclusive results and toxic doses are left out.

Tested on: L1210 leukemia ip in BDF1 mice, survival T/C
Assay: NCI In Vivo Anticancer Drug Screen. Data for tumor model L1210 Leukemia (intraperitoneal) in B6D2F1 (BDF1) mice
Settings: endpoint: mean survival time, higher = longer survival
Summary of the method: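 Mice bearing the transplanted tumor received compound or vehicle. Survival of the treated group was divided by that of the vehicle-treated control group to give the ratio.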

[1] = dose: 25.0 mg/kg/injection, schedule: Q01DX009 (ip), vehicle: Klucel (hydroxypropylcellulose) (HPC)
[2] = dose: 50.0 mg/kg/injection, schedule: Q01DX009 (ip), vehicle: Klucel (hydroxypropylcellulose) (HPC)
[3] = dose: 100.0 mg/kg/injection, schedule: Q01DX001 (ip), vehicle: saline
[4] = dose: 100.0 mg/kg/injection, schedule: Q01DX009 (ip), vehicle: Klucel (hydroxypropylcellulose) (HPC)
[5] = dose: 100.0 mg/kg/injection, schedule: Q01DX009 (ip), vehicle: saline
[6] = dose: 100.0 mg/kg/injection, schedule: Q01DX001 (ip), vehicle: carboxymethylcellulose (CMC)
[7] = dose: 200.0 mg/kg/injection, schedule: Q01DX001 (ip), vehicle: carboxymethylcellulose (CMC)
[8] = dose: 400.0 mg/kg/injection, schedule: Q01DX001 (ip), vehicle: carboxymethylcellulose (CMC)
[9] = dose: 200.0 mg/kg/injection, schedule: Q01DX009 (ip), vehicle: Klucel (hydroxypropylcellulose) (HPC)
[10] = dose: 400.0 mg/kg/injection, schedule: Q01DX009 (ip), vehicle: Klucel (hydroxypropylcellulose) (HPC)
[11] = dose: 25.0 mg/kg/injection, schedule: Q04DX003 (ip), vehicle: saline with Tween-80
[12] = dose: 50.0 mg/kg/injection, schedule: Q04DX003 (ip), vehicle: saline with Tween-80
[13] = dose: 100.0 mg/kg/injection, schedule: Q04DX003 (ip), vehicle: Klucel (hydroxypropylcellulose) (HPC)
[14] = dose: 50.0 mg/kg/injection, schedule: Q01DX001 (ip), vehicle: saline
[15] = dose: 200.0 mg/kg/injection, schedule: Q01DX001 (ip), vehicle: saline
[16] = dose: 400.0 mg/kg/injection, schedule: Q01DX001 (ip), vehicle: saline
[17] = dose: 200.0 mg/kg/injection, schedule: Q04DX003 (ip), vehicle: Klucel (hydroxypropylcellulose) (HPC)
[18] = dose: 400.0 mg/kg/injection, schedule: Q04DX003 (ip), vehicle: Klucel (hydroxypropylcellulose) (HPC)

SMILES: COC1=C(Br)[C@H](O)[C@](O)(CC#N)C=C1Br
- T/C (dose: 12.5 mg/kg/injection, schedule: Q01DX009 (ip), vehicle: saline): 97 % of control
- T/C (dose: 25.0 mg/kg/injection, schedule: Q01DX001 (ip), vehicle: Klucel (hydroxypropylcellulose) (HPC)): 97 % of control
- T/C [1]: 101 % of control
- T/C (dose: 25.0 mg/kg/injection, schedule: Q01DX009 (ip), vehicle: saline): 110 % of control
- T/C (dose: 44.0 mg/kg/injection, schedule: Q01DX001 (ip), vehicle: saline): 103 % of control
- T/C (dose: 50.0 mg/kg/injection, schedule: Q01DX001 (ip), vehicle: Klucel (hydroxypropylcellulose) (HPC)): 104 % of control
- T/C [2]: 94 % of control
- T/C (dose: 50.0 mg/kg/injection, schedule: Q01DX009 (ip), vehicle: saline): 107 % of control
- T/C (dose: 66.0 mg/kg/injection, schedule: Q01DX001 (ip), vehicle: saline): 106 % of control
- T/C [3]: 117 % of control and 229 % of control
- T/C [4]: 108 % of control
- T/C [5]: 91 % of control
- T/C (dose: 150.0 mg/kg/injection, schedule: Q01DX001 (ip), vehicle: saline): 121 % of control

SMILES: OCC(O)C(O)/C=N/N(Cc1ccccc1)c1ccccc1 (stereo unspecified)
- T/C (dose: 50.0 mg/kg/injection, schedule: Q01DX001 (ip), vehicle: carboxymethylcellulose (CMC)): 103 % of control
- T/C [6]: 101 % of control
- T/C [7]: 101 % of control
- T/C [8]: 97 % of control

SMILES: O=C(N/N=C/c1ccccc1O)c1cc2ccccc2cc1O
- T/C (dose: 100.0 mg/kg/injection, schedule: Q01DX009 (ip), vehicle: saline with Tween-80): 91 % of control
- T/C (dose: 200.0 mg/kg/injection, schedule: Q01DX009 (ip), vehicle: saline with Tween-80): 86 % of control
- T/C (dose: 400.0 mg/kg/injection, schedule: Q01DX009 (ip), vehicle: saline with Tween-80): 90 % of control

SMILES: CCCOC(=O)COc1ccc(Cl)cc1
- T/C [4]: 97 % of control
- T/C [9]: 95 % of control
- T/C [10]: 104 % of control

SMILES: BrCC1CCCCO1 (stereo unspecified)
- T/C (dose: 12.5 mg/kg/injection, schedule: Q01DX009 (ip), vehicle: saline with Tween-80): 94 % of control
- T/C (dose: 12.5 mg/kg/injection, schedule: Q04DX003 (ip), vehicle: saline with Tween-80): 108 % of control
- T/C (dose: 25.0 mg/kg/injection, schedule: Q01DX009 (ip), vehicle: saline with Tween-80): 99 % of control
- T/C [11]: 108 % of control
- T/C (dose: 50.0 mg/kg/injection, schedule: Q01DX009 (ip), vehicle: saline with Tween-80): 99 % of control
- T/C [12]: 97 % of control

SMILES: O=[N+]([O-])c1ccc(O)c(N=Cc2ccccc2O)c1
- T/C [6]: 102 % of control
- T/C [7]: 96 % of control
- T/C [8]: 96 % of control

SMILES: c1ccc(CCN2CCCCC2)cc1
- T/C (dose: 10.0 mg/kg/injection, schedule: Q01DX001 (ip), vehicle: saline): 95 % of control
- T/C (dose: 20.0 mg/kg/injection, schedule: Q01DX001 (ip), vehicle: saline): 116 % of control
- T/C (dose: 40.0 mg/kg/injection, schedule: Q01DX001 (ip), vehicle: saline): 96 % of control

SMILES: CN1CSC(=S)N(C)C1
- T/C (dose: 25.0 mg/kg/injection, schedule: Q04DX003 (ip), vehicle: Klucel (hydroxypropylcellulose) (HPC)): 95 % of control
- T/C (dose: 50.0 mg/kg/injection, schedule: Q04DX003 (ip), vehicle: Klucel (hydroxypropylcellulose) (HPC)): 95 % of control
- T/C [13]: 95 % of control and 101 % of control

SMILES: CCCCCCC(=O)N(CCCC)CCCC
- T/C [6]: 109 % of control
- T/C (dose: 100.0 mg/kg/injection, schedule: Q01DX009 (ip), vehicle: carboxymethylcellulose (CMC)): 100 % of control and 91 % of control
- T/C (dose: 100.0 mg/kg/injection, schedule: Q04DX003 (ip), vehicle: carboxymethylcellulose (CMC)): 103 % of control
- T/C [7]: 95 % of control
- T/C (dose: 200.0 mg/kg/injection, schedule: Q01DX009 (ip), vehicle: carboxymethylcellulose (CMC)): 96 % of control and 104 % of control
- T/C (dose: 200.0 mg/kg/injection, schedule: Q04DX003 (ip), vehicle: carboxymethylcellulose (CMC)): 94 % of control
- T/C [8]: 98 % of control
- T/C (dose: 400.0 mg/kg/injection, schedule: Q04DX003 (ip), vehicle: carboxymethylcellulose (CMC)): 92 % of control

SMILES: CC(O)CCc1ccc(OC(=O)c2ccccc2)cc1 (stereo unspecified)
- T/C [14]: 101 % of control
- T/C [3]: 92 % of control
- T/C [15]: 101 % of control
- T/C [16]: 92 % of control

SMILES: CCCCCC(CN(C)C)C(=O)/C=C/c1ccc(Cl)c(Cl)c1 (stereo unspecified)
- T/C (dose: 12.5 mg/kg/injection, schedule: Q04DX003 (ip), vehicle: acetone): 95 % of control
- T/C (dose: 25.0 mg/kg/injection, schedule: Q04DX003 (ip), vehicle: acetone): 92 % of control

SMILES: NC(=O)C(Cc1ccc(O)cc1)N(CCO)CCO (stereo unspecified)
- T/C [3]: 101 % of control
- T/C [15]: 101 % of control
- T/C [16]: 104 % of control

SMILES: C=CCN(C=O)CC=C
- T/C [5]: 101 % of control

SMILES: C[P+](c1ccc(F)cc1)(c1ccc(F)cc1)c1ccc(F)cc1
- T/C [1]: 98 % of control
- T/C [2]: 96 % of control
- T/C [13]: 89 % of control

SMILES: CSc1ccc(/C=C/c2ccc([N+](=O)[O-])cc2)cc1
- T/C [4]: 97 % of control
- T/C [13]: 91 % of control
- T/C [9]: 88 % of control
- T/C [17]: 93 % of control
- T/C [10]: 92 % of control
- T/C [18]: 88 % of control

SMILES: COC(=O)CC(C)=S.[Ni]
- T/C [14]: 98 % of control
- T/C [3]: 98 % of control
- T/C [15]: 98 % of control
- T/C [16]: 117 % of control

SMILES: NC(N)=N/N=C(\C=C\c1ccccc1)C(=O)O
- T/C (dose: 240.0 mg/kg/injection, schedule: Q01DX Z (ip), vehicle: methylcellulose (MC)): 102 % of control
- T/C (dose: 360.0 mg/kg/injection, schedule: Q01DX Z (ip), vehicle: methylcellulose (MC)): 100 % of control
- T/C (dose: 480.0 mg/kg/injection, schedule: Q01DX Z (ip), vehicle: methylcellulose (MC)): 96 % of control

SMILES: Cc1cc(=O)[nH]c(O)c1C(=O)/C=C/c1ccccc1
- T/C [3]: 96 % of control
- T/C [15]: 102 % of control

SMILES: Cc1cc(C)c(S(N)(=O)=O)c(C)c1
- T/C (dose: 50.0 mg/kg/injection, schedule: Q04DX002 (ip), vehicle: Klucel (hydroxypropylcellulose) (HPC)): 94 % of control
- T/C (dose: 100.0 mg/kg/injection, schedule: Q04DX002 (ip), vehicle: Klucel (hydroxypropylcellulose) (HPC)): 107 % of control
- T/C (dose: 200.0 mg/kg/injection, schedule: Q04DX002 (ip), vehicle: Klucel (hydroxypropylcellulose) (HPC)): 94 % of control

SMILES: CCc1ccc2[nH]c(C(=O)O)cc2c1
- T/C [3]: 92 % of control
- T/C [16]: 90 % of control

SMILES: C[S+](C)CC(=O)c1ccc(Br)cc1
- T/C [13]: 97 % of control
- T/C [17]: 95 % of control
- T/C [18]: 101 % of control

SMILES: CSC1SCC2C(=O)N(C)C(C(C)C)C(=O)OCC(NC(=O)c3cnc4ccccc4n3)C(=O)NC(C)C(=O)N(C)C1C(=O)N(C)C(C(C)C)C(=O)OCC(NC(=O)c1cnc3ccccc3n1)C(=O)NC(C)C(=O)N2C (stereo unspecified)
- T/C (dose: 0.4 micrograms/kg/injection, schedule: Q01DX009 (ip), vehicle: saline with Tween-80): 97 % of control
- T/C (dose: 0.9 micrograms/kg/injection, schedule: Q01DX009 (ip), vehicle: saline with Tween-80): 102 % of control
- T/C (dose: 1.9 micrograms/kg/injection, schedule: Q01DX009 (ip), vehicle: saline with Tween-80): 97 % of control
- T/C (dose: 3.8 micrograms/kg/injection, schedule: Q01DX009 (ip), vehicle: saline with Tween-80): 102 % of control
- T/C (dose: 7.5 micrograms/kg/injection, schedule: Q01DX009 (ip), vehicle: saline with Tween-80): 115 % of control
- T/C (dose: 15.0 micrograms/kg/injection, schedule: Q01DX009 (ip), vehicle: saline with Tween-80): 117 % of control

SMILES: CC(C)=CCNc1ncnc2c(C3OC(CO)C(O)C3O)[nH]nc12 (stereo unspecified)
- T/C (dose: 100.0 mg/kg/injection, schedule: Q01DX005 (ip), vehicle: saline): 95 % of control
- T/C (dose: 200.0 mg/kg/injection, schedule: Q01DX005 (ip), vehicle: saline): 95 % of control

SMILES: Clc1nn2nnnc2c2ccccc12
- T/C (dose: 6.25 mg/kg/injection, schedule: Q04DX002 (ip), vehicle: Klucel (hydroxypropylcellulose) (HPC)): 93 % of control
- T/C (dose: 12.5 mg/kg/injection, schedule: Q04DX002 (ip), vehicle: Klucel (hydroxypropylcellulose) (HPC)): 93 % of control
- T/C (dose: 25.0 mg/kg/injection, schedule: Q04DX002 (ip), vehicle: Klucel (hydroxypropylcellulose) (HPC)): 96 % of control
- T/C [11]: 98 % of control
- T/C [12]: 101 % of control
- T/C (dose: 100.0 mg/kg/injection, schedule: Q04DX003 (ip), vehicle: saline with Tween-80): 98 % of control
